# Results from patent US10851108B2, “Substituted bicyclic heterocyclic compounds” (BRISTOL-MYERS SQUIBB COMPANY, priority 2016, dated 2020).
# Biological target: hROMK (human Kir1.1) (Homo sapiens (Human), UniProt P48048)
# Assay: Thallium Flux Assay
# Assay type: cell-based
# Conditions: CHO T-Rex hROMK stable cell line, 10-point concentration response; read-out: hROMK Th+ Flux IC50
# Protocol: Solutions and reagents: Thallium flux assay was performed using FluxOR kit (F10017, Life Technologies). Loading buffer, assay buffer and stimulus buffer were prepared using kit components. HBSS (Hank's balanced salt solution, Cat #14025-092) was purchased separately from Life Technologies.
# To prepare 10 ml of loading buffer: 10 μl of FluxOR dye (reconstituted in DMSO) was first added to 100 μl of powerload concentrate and this mix along with 100 μl of Probenicid (100×) was then added to 9.79 ml of HBSS. Assay buffer (10 ml) was prepared by addition of 2 ml of FluxOR chloride free buffer (5×), 100 μl of Probenicid (100×), and 0.2 ml of Ouabain (13.77 mM) to 7.7 ml of deionized water. Stimulus buffer was composed of 15 mM Tl2SO4, 0.75 mM K2SO4 in FluxOR chloride free buffer (diluted to 1× using deionized water). The final concentration of Tl2SO4 and K2SO4 in the assay plate was 3 mM and 0.15 mM, respectively.
# Plating and induction of cells: The CHO T-Rex hROMK (human Kir1.1) stable cell line was maintained in Ham's F12 media supplemented with 10% FBS, 1% Penicillin-Streptomycin, 500 μg/ml Zeocin and 10 μg/ml Blasticidin at 37° C. in a 5% CO2 incubator. One day before the experiment, the cells were dissociated by incubation with Versene solution (15040-066, Life Technologies) for 10 minutes at 37° C. followed by addition of growth media. The cell suspension was centrifuged at 1200 rpm for 5 min. After discarding the supernatant, the cells were resuspended in fresh growth media and cell concentration was determined using a hemocytometer. Next, 0.5 μg/ml of Doxycycline was added to the cell suspension to induce hROMK channel expression and 50 μl (10,000 cells/well) of cell suspension was added to each well of a poly-D lysine coated 384 well black, optically clear bottom plate (6007718, Perkin Elmer). The assay plate was kept at 37° C. in a 5% CO2 incubator.
# Assay protocol: On the day of experiment, media was removed and loading buffer was added (30 μl/well) to the assay plate. The cells were incubated in the loading buffer for 30 minutes at 37° C. The loading buffer was then replaced by assay buffer (30 μl/well) followed by addition of test compounds or controls. The cells were incubated with compounds for 30 minutes and the plate was then mounted on FlexStation (Molecular Devices) for fluorescence read out with excitation and emission wavelengths at 488 and 525 nm, respectively. Each well was read for 90 sec at 2 sec interval and the stimulus buffer was added after 20 seconds of baseline recording. The final DMSO concentration was either 0.5 or 1% in the assay plate. […] controls were defined by addition of DMSO or 3 μM of a standard ROMK inhibitor, respectively, to the wells instead of a test compound.
# A 10-point concentration response curve was used to estimate the IC50 value of test compounds.
# The data in Table 3 is reported with two significant figures.
# Chain of hROMK (human Kir1.1) (P48048 whole entry): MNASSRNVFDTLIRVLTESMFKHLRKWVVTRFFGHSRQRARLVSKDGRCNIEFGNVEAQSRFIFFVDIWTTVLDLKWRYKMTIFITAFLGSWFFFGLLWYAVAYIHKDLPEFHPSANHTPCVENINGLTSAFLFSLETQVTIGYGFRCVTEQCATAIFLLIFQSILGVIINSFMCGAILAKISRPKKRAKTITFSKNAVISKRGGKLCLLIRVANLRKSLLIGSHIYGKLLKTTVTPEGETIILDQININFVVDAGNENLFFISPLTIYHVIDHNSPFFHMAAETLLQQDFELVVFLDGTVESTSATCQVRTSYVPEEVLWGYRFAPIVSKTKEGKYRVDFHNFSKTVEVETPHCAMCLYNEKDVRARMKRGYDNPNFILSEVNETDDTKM
row,IC50 [nM],SMILES
1,4900,"Cc1c(CN2CCc3cc(Nc4ncc(C#N)cn4)ccc3C2)ccc2c1COC2=O [Example 37, 2-((2-((4-methyl-1-oxo-1,3-dihydro-isobenzofuran-5-yl)methyl)-1,2,3,4-tetrahydroisoquinolin-6-yl)amino) pyrimidine-5-carbonitrile]"
2,300,"Cc1cc(Nc2ccc3c(c2)CCN(Cc2ccc4c(c2)COC4=O)C3)ncc1C#N [Example 34, 4-methyl-6-((2-((1-oxo-1,3-dihydro-isobenzofuran-5-yl)methyl)-1,2,3,4-tetrahydroisoquinolin-6-yl)amino) nicotinonitrile]"
3,1900,"Cc1c(CN2CCc3nc(N(C)c4ccc(C#N)c(F)c4)ncc3C2)ccc2c1COC2=O [Example 47, 2-fluoro-4-(methyl(6-((4-methyl-1-oxo-1,3-dihydroisobenzofuran-5-yl)methyl)-5,6,7,8-tetrahydropyrido[4,3-d]pyrimidin-2-yl)amino) benzonitrile]"
4,270,"Cc1c(CN2CCc3nc(Nc4ccc(C#N)c(F)c4)ncc3C2)ccc2c1COC2=O [Example 26, 2-fluoro-4-((6-((4-methyl-1-oxo-1,3-dihydroisobenzofuran-5-yl)methyl)-5,6,7,8-tetrahydropyrido[4,3-d]pyrimidin-2-yl)amino) benzonitrile]"
5,1500,"Cc1cc(Nc2ncc3c(n2)CCN(Cc2ccc4c(c2C)COC4=O)C3)ncc1C#N [Example 31, 4-methyl-6-((6-((4-methyl-1-oxo-1,3-dihydroisobenzofuran-5-yl)methyl)-5,6,7,8-tetrahydropyrido[4,3-d]pyrimidin-2-yl)amino) nicotinonitrile]"
6,210,"Cc1c(C(O)CN2CCc3nc(-n4ccc5c(C#N)cncc54)ncc3C2)ccc2c1COC2=O (single isomer, unassigned) [Example 42-II, 1-(6-(2-hydroxy-2-(4-methyl-1-oxo-1,3-dihydroisobenzofuran-5-yl)ethyl)-5,6,7,8-tetrahydropyrido[4,3-d]pyrimidin-2-yl)-1H-pyrrolo[2,3-c]pyridine-4-carbonitrile]"
7,750,"Cc1c(CN2CCc3nc(-n4ncc5cc(C#N)ccc54)ncc3C2)ccc2c1COC2=O [Example 13, 1-(6-((4-methyl-1-oxo-1,3-dihydro-isobenzofuran-5-yl)methyl)-5,6,7,8-tetrahydropyrido[4,3-d]pyrimidin-2-yl)-1H-indazole-5-carbonitrile]"
8,1200,"N#Cc1ccc2c(cnn2-c2ncc3c(n2)CCN(Cc2ccc4c(c2)COC4=O)C3)c1 [Example 11, 1-(6-((1-oxo-1,3-dihydroisobenzofuran-5-yl)methyl)-5,6,7,8-tetrahydropyrido[4,3-d]pyrimidin-2-yl)-1H-indazole-5-carbonitrile]"
9,3200,"Cc1c(CN2CCc3nc(-n4ccc5cc(C#N)ccc54)ncc3C2)ccc2c1COC2=O [Example 21, 1-(6-((4-methyl-1-oxo-1,3-dihydro-isobenzofuran-5-yl)methyl)-5,6,7,8-tetrahydropyrido[4,3-d]pyrimidin-2-yl)-1H-indole-5-carbonitrile]"
10,800,"Cc1c(C(O)CN2CCc3nc(-n4ncc5c(C#N)ccnc54)ncc3C2)ccc2c1COC2=O (single isomer, unassigned) [Example 35-I, 1-(6-(2-hydroxy-2-(4-methyl-1-oxo-1,3-dihydroisobenzofuran-5-yl)ethyl)-5,6,7,8-tetrahydropyrido[4,3-d]pyrimidin-2-yl)-1H-pyrazolo[3,4-b]pyridine-4-carbonitrile]"
11,4900,"Cc1c(C(O)CN2CCc3nc(-n4ncc5c(C#N)ccnc54)ncc3C2)ccc2c1COC2=O (single isomer, unassigned) [Example 35-II, 1-(6-(2-hydroxy-2-(4-methyl-1-oxo-1,3-dihydroisobenzofuran-5-yl)ethyl)-5,6,7,8-tetrahydropyrido[4,3-d]pyrimidin-2-yl)-1H-pyrazolo[3,4-b]pyridine-4-carbonitrile]"
12,640,"Cc1c(C(O)CN2CCc3nc(-n4ncc5c(C#N)cncc54)ncc3C2)ccc2c1COC2=O (single isomer, unassigned) [Example 43-II, 1-(6-(2-hydroxy-2-(4-methyl-1-oxo-1,3-dihydroisobenzofuran-5-yl)ethyl)-5,6,7,8-tetrahydropyrido[4,3-d]pyrimidin-2-yl)-1H-pyrazolo[3,4-c]pyridine-4-carbonitrile]"
13,340,"N#Cc1ccc2c(ccn2-c2ncc3c(n2)CCN(CC(O)c2ccc4c(c2)COC4=O)C3)c1 (single isomer, unassigned) [Example 17-I, 1-(6-(2-hydroxy-2-(1-oxo-1,3-dihydro-isobenzofuran-5-yl)ethyl)-5,6,7,8-tetrahydropyrido[4,3-d]pyrimidin-2-yl)-1H-indole-5-carbonitrile]"
14,320,"Cc1c(CN2CCc3cc(Nc4ccc5oc(=O)n(C)c5c4)ccc3C2)ccc2c1COC2=O [Example 14, 3-methyl-5-((2-((4-methyl-1-oxo-1,3-dihydroisobenzofuran-5-yl)methyl)-1,2,3,4-tetrahydroisoquinolin-6-yl)amino)benzo[d]oxazol-2(3H)-one]"
15,1800,"Cc1c(CN2CCc3nc(Nc4ccc5oc(=O)n(C)c5c4)ncc3C2)ccc2c1COC2=O [Example 49, 3-methyl-5-((6-((4-methyl-1-oxo-1,3-dihydroisobenzofuran-5-yl)methyl)-5,6,7,8-tetrahydropyrido[4,3-d]pyrimidin-2-yl)amino) benzo[d]oxazol-2(3H)-one]"
16,810,"Cc1c(CN2CCc3cc(Nc4ccc(C#N)c(F)c4)ccc3C2)ccc2c1COC2=O [Example 30, 2-fluoro-4-((2-((4-methyl-1-oxo-1,3-dihydroisobenzofuran-5-yl)methyl)-1,2,3,4-tetrahydroisoquinolin-6-yl)amino)benzonitrile]"
17,4600,"Cc1c(N2CCc3cc(NCc4ccc(C#N)c(F)c4)ccc3C2)ccc2c1COC2=O [Example 10, 2-fluoro-4-(((2-(4-methyl-1-oxo-1,3-dihydroisobenzofuran-5-yl)-1,2,3,4-tetrahydroisoquinolin-6-yl)amino)methyl)benzonitrile]"
18,38,"Cc1c(C(O)CN2CCc3nc(-n4ncc5c(C#N)cccc54)ncc3C2)ccc2c1COC2=O (single isomer, unassigned) [Example 12-I, 1-(6-(2-hydroxy-2-(4-methyl-1-oxo-1,3-dihydroisobenzofuran-5-yl)ethyl)-5,6,7,8-tetrahydropyrido[4,3-d]pyrimidin-2-yl)-1H-indazole-4-carbonitrile]"
19,3000,"Cc1c(C(CO)N2CCc3nc(Nc4ccc(C#N)c(F)c4)ncc3C2)ccc2c1COC2=O (single isomer, unassigned) [Example 29-I, 2-fluoro-4-((6-(2-hydroxy-1-(4-methyl-1-oxo-1,3-dihydroisobenzofuran-5-yl)ethyl)-5,6,7,8-tetrahydropyrido [4,3-d]pyrimidin-2-yl)amino)benzonitrile]"
20,490,"Cc1c(C(CO)N2CCc3cc(Nc4ccc(C#N)c(F)c4)ccc3C2)ccc2c1COC2=O (single isomer, unassigned) [Example 33-I, 2-fluoro-4-((2-(2-hydroxy-1-(4-methyl-1-oxo-1,3-dihydroisobenzofuran-5-yl)ethyl)-1,2,3,4-tetrahydroisoquinolin-6-yl)amino) benzonitrile]"
21,1490,"Cc1c(C(O)CN2CCc3nc(-n4cnc5cccnc54)ncc3C2)ccc2c1COC2=O (single isomer, unassigned) [Example 55-I, 5-(2-(2-(3H-imidazo[4,5-b]pyridin-3-yl)-7,8-dihydropyrido[4,3-d]pyrimidin-6(5H)-yl)-1-hydroxyethyl)-4-methylisobenzofuran-1(3H)-one]"
22,700,"Cn1c(=O)oc2ccc(C(O)CN3CCc4nc(-n5ccc6c(C#N)cccc65)ncc4C3)cc21 (single isomer, unassigned) [Example 22-II, 1-(6-(2-hydroxy-2-(3-methyl-2-oxo-2,3-dihydrobenzo[d]oxazol-5-yl)ethyl)-5,6,7,8-tetrahydropyrido[4,3-d]pyrimidin-2-yl)-1H-indole-4-carbonitrile]"
23,1900,"Cc1c(CN2CCc3cc(Nc4ccn5nccc5n4)ccc3C2)ccc2c1COC2=O [Example 38, 4-methyl-5-((6-(pyrazolo[1,5-a]pyrimidin-5-ylamino)-3,4-dihydroisoquinolin-2(1H)-yl)methyl)isobenzofuran-1(3H)-one]"
